Several values for one entry are separate records, joined by “and”; a condition that tells them apart may be missing. Equal entries are not always repeated. Toxic doses and inconclusive results are not listed. The calls were made as follows: active = survival T/C of 150% or more; inactive = T/C below 125% in these data.
System: P388 leukemia ip, CD2F1 mice, survival T/C
Assay: NCI In Vivo Anticancer Drug Screen. Data for tumor model P388 Leukemia (intraperitoneal) in CD2F1 (CDF1) mice
Details: endpoint: median survival time, higher = longer survival
Procedure, shortened: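 Mice carrying the transplanted tumor received test compound or vehicle. Survival was recorded in each group, and the value is the treated-group measurement divided by that of the vehicle-treated control group.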

[1] = dose: 100.0 mg/kg/injection, schedule: Q01DX009 (ip), vehicle: saline with Tween-80
[2] = dose: 200.0 mg/kg/injection, schedule: Q01DX009 (ip), vehicle: saline with Tween-80
[3] = dose: 400.0 mg/kg/injection, schedule: Q01DX009 (ip), vehicle: saline with Tween-80
[4] = dose: 50.0 mg/kg/injection, schedule: Q01DX009 (ip), vehicle: saline
[5] = dose: 100.0 mg/kg/injection, schedule: Q01DX009 (ip), vehicle: saline
[6] = dose: 200.0 mg/kg/injection, schedule: Q01DX009 (ip), vehicle: saline
[7] = dose: 50.0 mg/kg/injection, schedule: Q04DX002 (ip), vehicle: saline with Tween-80
[8] = dose: 50.0 mg/kg/injection, schedule: Q01DX005 (ip), vehicle: Klucel (hydroxypropylcellulose) (HPC)
[9] = dose: 100.0 mg/kg/injection, schedule: Q01DX005 (ip), vehicle: Klucel (hydroxypropylcellulose) (HPC)
[10] = dose: 200.0 mg/kg/injection, schedule: Q01DX005 (ip), vehicle: Klucel (hydroxypropylcellulose) (HPC)
[11] = dose: 200.0 mg/kg/injection, schedule: Q04DX003 (ip), vehicle: saline with Tween-80
[12] = dose: 100.0 mg/kg/injection, schedule: Q04DX003 (ip), vehicle: saline with Tween-80
[13] = dose: 60.0 mg/kg/injection, schedule: Q01DX005 (ip), vehicle: saline
[14] = dose: 120.0 mg/kg/injection, schedule: Q01DX005 (ip), vehicle: saline
[15] = dose: 400.0 mg/kg/injection, schedule: Q04DX003 (ip), vehicle: saline with Tween-80

Measured: T/C

CCOC(=O)NNCC(=O)O
inactive: dose: 12.5 mg/kg/injection, schedule: Q01DX009 (ip), vehicle: water 104 % of control | dose: 25.0 mg/kg/injection, schedule: Q01DX009 (ip), vehicle: water 105 % of control | dose: 50.0 mg/kg/injection, schedule: Q01DX009 (ip), vehicle: water 101 % of control | dose: 100.0 mg/kg/injection, schedule: Q01DX009 (ip), vehicle: water 94 % of control | dose: 200.0 mg/kg/injection, schedule: Q01DX009 (ip), vehicle: water 98 % of control

NC(CCCCNC1CCCCC1)C(=O)O (configuration not stated)
inactive: [1] 106 % of control | [2] 105 % of control | [3] 100 % of control

COc1cc(OC)c(OC)cc1/C=C/c1ccc2ccccc2n1
inactive: [1] 110 % of control | [2] 110 % of control | [3] 110 % of control

O=C1NCCNC1c1ccccc1 (configuration not stated)
inactive: dose: 25.0 mg/kg/injection, schedule: Q01DX009 (ip), vehicle: saline 102 % of control | [4] 102 % of control | [5] 98 % of control | [6] 100 % of control

CCOC(=O)NCP(Cl)(CNC(=O)OCC)(CNC(=O)OCC)CNC(=O)OCC
inactive: [4] 99 % of control | [5] 86 % of control

CCCCCCCCCCCCCCCC[N+](C)(C)C
inactive: dose: 1.56 mg/kg/injection, schedule: Q01DX009 (ip), vehicle: saline 99 % of control and 115 % of control and 120 % of control | dose: 1.56 mg/kg/injection, schedule: Q04DX003 (ip), vehicle: saline with Tween-80 100 % of control | dose: 2.0 mg/kg/injection, schedule: Q01DX009 (ip), vehicle: saline 113 % of control | dose: 3.12 mg/kg/injection, schedule: Q01DX009 (ip), vehicle: saline 118 % of control and 121 % of control | dose: 3.13 mg/kg/injection, schedule: Q01DX009 (ip), vehicle: saline 109 % of control | dose: 3.13 mg/kg/injection, schedule: Q04DX003 (ip), vehicle: saline with Tween-80 104 % of control | dose: 4.7 mg/kg/injection, schedule: Q01DX009 (ip), vehicle: saline 86 % of control | dose: 6.25 mg/kg/injection, schedule: Q04DX003 (ip), vehicle: saline with Tween-80 100 % of control and 112 % of control

NC(=O)c1sc(SCc2ccccc2)c(-[n+]2ccccc2)c1N
inactive: dose: 25.0 mg/kg/injection, schedule: Q04DX002 (ip), vehicle: saline with Tween-80 105 % of control | [7] 105 % of control

COc1ccc2ncc(COC(C)=O)c(COC(C)=O)c2c1
inactive: [8] 99 % of control | [9] 98 % of control | [10] 102 % of control

c1ccc(-c2c(-c3ccccc3)[c+]2-c2ccccc2)cc1
inactive: dose: 100.0 mg/kg/injection, schedule: Q01DX001 (ip), vehicle: gum acacia 99 % of control | dose: 200.0 mg/kg/injection, schedule: Q01DX001 (ip), vehicle: gum acacia 99 % of control

O=C1OCc2c[n+]([O-])ccc21
inactive: dose: 20.0 mg/kg/injection, schedule: Q01DX005 (ip), vehicle: Klucel (hydroxypropylcellulose) (HPC) 96 % of control | dose: 40.0 mg/kg/injection, schedule: Q01DX005 (ip), vehicle: Klucel (hydroxypropylcellulose) (HPC) 118 % of control | dose: 80.0 mg/kg/injection, schedule: Q01DX005 (ip), vehicle: Klucel (hydroxypropylcellulose) (HPC) 91 % of control

ClC(Cl)(Cl)C(Cl)(Cl)c1ccc(C(Cl)(Cl)C(Cl)(Cl)Cl)cc1
inactive: dose: 132.0 mg/kg/injection, schedule: Q04DX003 (ip), vehicle: saline with Tween-80 100 % of control | [11] 100 % of control | dose: 300.0 mg/kg/injection, schedule: Q04DX003 (ip), vehicle: saline with Tween-80 100 % of control

CCCCCCCC(=O)Nc1cccc(C)c1C
inactive: [12] 90 % of control | [11] 95 % of control

CNC(=S)N/N=C/CCCC/C=N/NC(=S)NC
inactive: dose: 100.0 mg/kg/injection, schedule: Q01DX001 (ip), vehicle: saline 96 % of control | dose: 200.0 mg/kg/injection, schedule: Q01DX001 (ip), vehicle: saline 96 % of control | dose: 400.0 mg/kg/injection, schedule: Q01DX001 (ip), vehicle: saline 101 % of control

NS(=O)(=O)c1ccc(NC(=O)Nc2cc(C(F)(F)F)ccc2Cl)cc1
inactive: dose: 60.0 mg/kg/injection, schedule: Q01DX005 (ip), vehicle: saline with Tween-80 103 % of control | dose: 120.0 mg/kg/injection, schedule: Q01DX005 (ip), vehicle: saline with Tween-80 96 % of control | dose: 240.0 mg/kg/injection, schedule: Q01DX005 (ip), vehicle: saline with Tween-80 87 % of control

CS/C(=N/S(=O)(=O)c1ccccc1)NNC(=S)Nc1ccc(C(C)C)cc1
inactive: [4] 94 % of control | [5] 97 % of control | [6] 97 % of control

O=C(OCCO)c1c(Cl)c(Cl)c(Cl)c(Cl)c1-c1c2cc(Br)c(=O)c(Br)c-2oc2c(Br)c(O)c(Br)cc12
inactive: [13] 94 % of control | [14] 92 % of control

NC(=S)N/N=C/c1c(-c2ccc(-c3ccccc3)cc2)nc2n1CCS2
inactive: dose: 100.0 mg/kg/injection, schedule: Q04DX002 (ip), vehicle: Klucel (hydroxypropylcellulose) (HPC) 98 % of control | dose: 200.0 mg/kg/injection, schedule: Q04DX002 (ip), vehicle: Klucel (hydroxypropylcellulose) (HPC) 104 % of control | dose: 400.0 mg/kg/injection, schedule: Q04DX002 (ip), vehicle: Klucel (hydroxypropylcellulose) (HPC) 99 % of control

CCOC(CC#CC(=O)N(C)C)OCC
inactive: [13] 100 % of control | [14] 107 % of control | dose: 240.0 mg/kg/injection, schedule: Q01DX005 (ip), vehicle: saline 101 % of control

C[C@@H]1C[C@@]2(C)[C@@H](CC[C@@H]3[C@@H]2CC[C@]2(C)[C@@H](O)CC[C@@H]32)CC1=O
inactive: dose: 100.0 mg/kg/injection, schedule: Q04DX003 (ip), vehicle: Klucel (hydroxypropylcellulose) (HPC) 100 % of control | dose: 200.0 mg/kg/injection, schedule: Q04DX003 (ip), vehicle: Klucel (hydroxypropylcellulose) (HPC) 100 % of control

CC12C(=O)C=CCC1=CCC1C2CCC2(O)C(=O)OC3(C)C4CC5(C)C(COC16OC23C5C6=O)C(=O)O4 (configuration not stated)
inactive: dose: 25.0 mg/kg/injection, schedule: Q01DX009 (ip), vehicle: saline with Tween-80 96 % of control | dose: 50.0 mg/kg/injection, schedule: Q01DX009 (ip), vehicle: saline with Tween-80 110 % of control | [1] 120 % of control | dose: 150.0 mg/kg/injection, schedule: Q01DX009 (ip), vehicle: Klucel (hydroxypropylcellulose) (HPC) 121 % of control

CCC1=Cc2cc([N+](=O)[O-])cc(OC)c2OC12SCCN2C (configuration not stated)
inactive: [12] 100 % of control | [11] 103 % of control | [15] 103 % of control

CCC/C(=N\NC(N)=NC)c1ccc2c(c1)Cc1ccccc1-2
inactive: [7] 106 % of control | dose: 100.0 mg/kg/injection, schedule: Q04DX002 (ip), vehicle: saline with Tween-80 102 % of control | dose: 200.0 mg/kg/injection, schedule: Q04DX002 (ip), vehicle: saline with Tween-80 104 % of control

COC1(OC)C(c2ccc(Cl)cc2)C(C#N)(C#N)C1(OC)OC (configuration not stated)
inactive: dose: 60.0 mg/kg/injection, schedule: Q01DX005 (ip), vehicle: Klucel (hydroxypropylcellulose) (HPC) 100 % of control | dose: 120.0 mg/kg/injection, schedule: Q01DX005 (ip), vehicle: Klucel (hydroxypropylcellulose) (HPC) 102 % of control | dose: 240.0 mg/kg/injection, schedule: Q01DX005 (ip), vehicle: Klucel (hydroxypropylcellulose) (HPC) 96 % of control

CCOC(=O)NC(C)(C)CN(C(=O)OCC)c1ccccc1
inactive: [1] 94 % of control | [2] 116 % of control | [11] 95 % of control | [3] 116 % of control | [15] 104 % of control

CCNc1cc2oc(=O)cc(C(F)(F)F)c2cc1C
inactive: [8] 97 % of control | [9] 100 % of control | [10] 99 % of control

Oc1ccc(C[n+]2ccccc2)cc1O
inactive: dose: 3.12 mg/kg/injection, schedule: Q01DX005 (ip), vehicle: saline 101 % of control and 97 % of control | dose: 6.25 mg/kg/injection, schedule: Q01DX005 (ip), vehicle: saline 102 % of control and 103 % of control | dose: 12.5 mg/kg/injection, schedule: Q01DX005 (ip), vehicle: saline 100 % of control and 105 % of control | dose: 25.0 mg/kg/injection, schedule: Q01DX005 (ip), vehicle: saline 92 % of control and 97 % of control

C=CCCCC(C#N)c1ccc2c(c1)OCO2 (configuration not stated)
inactive: dose: 50.0 mg/kg/injection, schedule: Q01DX005 (ip), vehicle: saline 105 % of control | dose: 100.0 mg/kg/injection, schedule: Q01DX005 (ip), vehicle: saline 105 % of control | dose: 200.0 mg/kg/injection, schedule: Q01DX005 (ip), vehicle: saline 101 % of control

From PubChem BioAssay AID330 (DTP/NCI, 2004)
